Key:
Format in all cases: ADME
[1] = biological target: T1, Solute carrier family 22 member 2 (Homo sapiens, UniProt O15244); test: Substrates of transporters of clinical importance in the absorption and disposition of drugs, OCT2
T1 sequence (O15244 whole entry): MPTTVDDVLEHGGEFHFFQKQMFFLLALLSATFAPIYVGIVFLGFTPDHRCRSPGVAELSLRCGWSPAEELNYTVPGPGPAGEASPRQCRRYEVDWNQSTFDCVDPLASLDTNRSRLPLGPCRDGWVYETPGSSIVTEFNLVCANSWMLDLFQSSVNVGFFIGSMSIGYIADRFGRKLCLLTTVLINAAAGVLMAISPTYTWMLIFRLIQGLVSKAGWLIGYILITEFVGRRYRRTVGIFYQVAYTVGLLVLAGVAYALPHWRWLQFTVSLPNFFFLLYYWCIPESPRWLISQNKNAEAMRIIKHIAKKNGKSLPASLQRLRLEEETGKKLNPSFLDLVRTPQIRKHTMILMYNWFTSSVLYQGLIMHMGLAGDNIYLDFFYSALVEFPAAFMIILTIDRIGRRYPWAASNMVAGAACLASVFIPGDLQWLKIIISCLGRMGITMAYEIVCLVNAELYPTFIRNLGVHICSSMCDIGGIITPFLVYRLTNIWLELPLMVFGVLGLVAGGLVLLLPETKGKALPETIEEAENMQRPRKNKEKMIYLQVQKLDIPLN

[2] = biological target: T2, Solute carrier family 22 member 1 (Homo sapiens, UniProt O15245); test: Substrates of transporters of clinical importance in the absorption and disposition of drugs, OCT1
T2 sequence (O15245 whole entry): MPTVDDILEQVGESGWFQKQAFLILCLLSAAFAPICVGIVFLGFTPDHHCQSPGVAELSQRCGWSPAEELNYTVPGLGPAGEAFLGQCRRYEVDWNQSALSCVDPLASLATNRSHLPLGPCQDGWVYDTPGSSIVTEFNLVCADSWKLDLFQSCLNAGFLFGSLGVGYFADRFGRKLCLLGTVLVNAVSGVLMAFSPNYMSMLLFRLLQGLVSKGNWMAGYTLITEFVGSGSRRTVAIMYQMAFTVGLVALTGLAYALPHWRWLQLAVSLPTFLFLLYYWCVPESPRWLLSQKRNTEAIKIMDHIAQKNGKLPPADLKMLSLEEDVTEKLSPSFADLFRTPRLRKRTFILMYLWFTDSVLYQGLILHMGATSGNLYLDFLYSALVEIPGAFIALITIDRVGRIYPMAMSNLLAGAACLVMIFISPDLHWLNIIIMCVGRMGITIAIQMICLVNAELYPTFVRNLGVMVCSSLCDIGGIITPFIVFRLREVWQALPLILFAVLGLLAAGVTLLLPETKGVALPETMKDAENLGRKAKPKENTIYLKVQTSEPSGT

[3] = biological target: T3, Multidrug and toxin extrusion protein 1 (Homo sapiens, UniProt Q96FL8); test: Substrates of transporters of clinical importance in the absorption and disposition of drugs, MATE1
T3 sequence (Q96FL8 whole entry): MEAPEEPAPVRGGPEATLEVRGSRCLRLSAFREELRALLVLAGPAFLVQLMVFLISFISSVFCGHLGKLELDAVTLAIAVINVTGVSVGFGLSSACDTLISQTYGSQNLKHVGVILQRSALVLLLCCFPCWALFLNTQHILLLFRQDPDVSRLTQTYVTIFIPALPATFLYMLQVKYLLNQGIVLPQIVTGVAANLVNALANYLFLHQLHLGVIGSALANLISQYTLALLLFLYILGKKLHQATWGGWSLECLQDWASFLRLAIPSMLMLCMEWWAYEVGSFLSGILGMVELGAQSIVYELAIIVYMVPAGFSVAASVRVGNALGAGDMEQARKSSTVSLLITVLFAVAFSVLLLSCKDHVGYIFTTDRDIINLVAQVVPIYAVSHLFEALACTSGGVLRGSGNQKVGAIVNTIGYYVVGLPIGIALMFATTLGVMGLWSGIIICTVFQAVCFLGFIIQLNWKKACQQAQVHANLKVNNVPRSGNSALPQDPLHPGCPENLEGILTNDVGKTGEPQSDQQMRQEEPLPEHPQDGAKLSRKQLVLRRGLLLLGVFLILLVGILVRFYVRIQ

[4] = biological target: T4, Multidrug and toxin extrusion protein 2 (Homo sapiens, UniProt Q86VL8); test: Substrates of transporters of clinical importance in the absorption and disposition of drugs, MATE2-K
T4 sequence (Q86VL8 whole entry): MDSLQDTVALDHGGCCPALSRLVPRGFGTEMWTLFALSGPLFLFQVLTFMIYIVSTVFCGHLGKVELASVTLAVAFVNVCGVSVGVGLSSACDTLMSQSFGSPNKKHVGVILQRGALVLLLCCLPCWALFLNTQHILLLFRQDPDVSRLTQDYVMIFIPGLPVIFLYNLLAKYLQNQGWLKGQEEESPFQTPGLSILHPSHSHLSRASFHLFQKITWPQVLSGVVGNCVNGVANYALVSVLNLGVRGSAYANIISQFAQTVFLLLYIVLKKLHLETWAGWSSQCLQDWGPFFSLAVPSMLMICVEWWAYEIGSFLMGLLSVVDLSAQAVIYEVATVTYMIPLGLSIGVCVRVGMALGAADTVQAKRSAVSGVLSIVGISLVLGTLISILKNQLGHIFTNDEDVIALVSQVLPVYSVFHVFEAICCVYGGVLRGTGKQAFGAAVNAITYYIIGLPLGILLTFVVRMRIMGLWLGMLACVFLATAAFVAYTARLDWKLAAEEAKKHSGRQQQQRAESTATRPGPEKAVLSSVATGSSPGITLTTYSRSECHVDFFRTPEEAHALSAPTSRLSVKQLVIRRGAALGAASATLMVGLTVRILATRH

[5] = biological target: T5, Broad substrate specificity ATP-binding cassette transporter ABCG2 (Homo sapiens, UniProt Q9UNQ0); test: Substrates of transporters of clinical importance in the absorption and disposition of drugs, BCRP
T5 sequence (Q9UNQ0 whole entry): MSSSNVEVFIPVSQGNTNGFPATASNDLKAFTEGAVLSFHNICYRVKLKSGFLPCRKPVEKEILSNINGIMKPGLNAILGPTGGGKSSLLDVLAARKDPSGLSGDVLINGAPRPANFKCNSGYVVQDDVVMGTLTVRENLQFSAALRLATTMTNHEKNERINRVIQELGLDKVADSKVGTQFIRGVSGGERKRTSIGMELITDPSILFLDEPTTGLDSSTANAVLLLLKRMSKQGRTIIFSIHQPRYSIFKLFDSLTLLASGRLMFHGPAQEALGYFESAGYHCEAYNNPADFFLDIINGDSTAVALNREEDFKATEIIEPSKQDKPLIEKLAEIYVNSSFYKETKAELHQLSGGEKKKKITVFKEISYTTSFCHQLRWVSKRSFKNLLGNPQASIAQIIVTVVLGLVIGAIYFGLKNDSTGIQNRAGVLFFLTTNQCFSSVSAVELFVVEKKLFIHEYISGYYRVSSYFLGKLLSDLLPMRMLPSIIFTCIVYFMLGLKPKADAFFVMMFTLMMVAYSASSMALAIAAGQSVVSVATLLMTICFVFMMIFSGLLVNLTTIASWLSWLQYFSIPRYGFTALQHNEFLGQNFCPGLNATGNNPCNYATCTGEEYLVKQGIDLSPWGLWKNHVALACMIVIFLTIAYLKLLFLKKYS

[6] = biological target: ATP-binding cassette sub-family C member 2 (Homo sapiens, UniProt Q92887); test: Substrates of transporters of clinical importance in the absorption and disposition of drugs, MRP2
[7] = biological target: T6, ATP-binding cassette sub-family C member 4 (Homo sapiens, UniProt O15439); test: Substrates of transporters of clinical importance in the absorption and disposition of drugs, MRP4
T6 sequence (O15439 whole entry): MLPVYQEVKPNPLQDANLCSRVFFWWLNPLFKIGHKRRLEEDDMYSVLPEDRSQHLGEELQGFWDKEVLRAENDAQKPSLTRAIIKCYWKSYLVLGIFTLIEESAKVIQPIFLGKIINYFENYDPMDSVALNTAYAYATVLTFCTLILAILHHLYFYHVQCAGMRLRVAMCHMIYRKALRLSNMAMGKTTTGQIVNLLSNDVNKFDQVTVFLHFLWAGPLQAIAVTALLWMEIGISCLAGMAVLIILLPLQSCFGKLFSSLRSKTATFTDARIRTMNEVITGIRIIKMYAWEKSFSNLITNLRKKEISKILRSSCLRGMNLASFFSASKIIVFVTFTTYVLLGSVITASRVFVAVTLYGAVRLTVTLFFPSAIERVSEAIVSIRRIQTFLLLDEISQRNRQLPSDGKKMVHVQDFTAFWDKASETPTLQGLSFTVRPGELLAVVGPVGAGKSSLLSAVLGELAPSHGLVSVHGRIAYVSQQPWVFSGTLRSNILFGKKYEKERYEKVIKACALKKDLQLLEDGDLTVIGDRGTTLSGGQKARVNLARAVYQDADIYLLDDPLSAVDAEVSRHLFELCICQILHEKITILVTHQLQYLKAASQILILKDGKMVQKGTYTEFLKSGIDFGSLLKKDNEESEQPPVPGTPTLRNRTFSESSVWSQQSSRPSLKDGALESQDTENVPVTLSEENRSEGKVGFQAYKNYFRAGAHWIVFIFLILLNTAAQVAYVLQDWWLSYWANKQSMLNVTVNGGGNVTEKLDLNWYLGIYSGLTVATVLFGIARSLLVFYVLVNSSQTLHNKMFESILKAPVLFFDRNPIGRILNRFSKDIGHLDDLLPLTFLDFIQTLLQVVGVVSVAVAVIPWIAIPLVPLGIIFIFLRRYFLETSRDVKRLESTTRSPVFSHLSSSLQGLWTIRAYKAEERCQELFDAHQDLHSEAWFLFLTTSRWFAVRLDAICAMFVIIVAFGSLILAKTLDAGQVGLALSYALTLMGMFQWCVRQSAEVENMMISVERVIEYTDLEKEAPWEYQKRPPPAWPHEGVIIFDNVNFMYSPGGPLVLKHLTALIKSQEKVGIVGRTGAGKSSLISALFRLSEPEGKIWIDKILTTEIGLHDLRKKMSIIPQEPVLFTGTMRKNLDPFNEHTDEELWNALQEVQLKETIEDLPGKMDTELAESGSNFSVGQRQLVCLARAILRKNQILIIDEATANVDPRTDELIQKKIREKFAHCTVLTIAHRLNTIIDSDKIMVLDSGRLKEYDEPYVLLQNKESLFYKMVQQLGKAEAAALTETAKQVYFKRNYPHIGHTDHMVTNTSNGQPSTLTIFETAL

Measured: Activity

Sequence of ATP-binding cassette sub-family C member 2 (Q92887 whole entry): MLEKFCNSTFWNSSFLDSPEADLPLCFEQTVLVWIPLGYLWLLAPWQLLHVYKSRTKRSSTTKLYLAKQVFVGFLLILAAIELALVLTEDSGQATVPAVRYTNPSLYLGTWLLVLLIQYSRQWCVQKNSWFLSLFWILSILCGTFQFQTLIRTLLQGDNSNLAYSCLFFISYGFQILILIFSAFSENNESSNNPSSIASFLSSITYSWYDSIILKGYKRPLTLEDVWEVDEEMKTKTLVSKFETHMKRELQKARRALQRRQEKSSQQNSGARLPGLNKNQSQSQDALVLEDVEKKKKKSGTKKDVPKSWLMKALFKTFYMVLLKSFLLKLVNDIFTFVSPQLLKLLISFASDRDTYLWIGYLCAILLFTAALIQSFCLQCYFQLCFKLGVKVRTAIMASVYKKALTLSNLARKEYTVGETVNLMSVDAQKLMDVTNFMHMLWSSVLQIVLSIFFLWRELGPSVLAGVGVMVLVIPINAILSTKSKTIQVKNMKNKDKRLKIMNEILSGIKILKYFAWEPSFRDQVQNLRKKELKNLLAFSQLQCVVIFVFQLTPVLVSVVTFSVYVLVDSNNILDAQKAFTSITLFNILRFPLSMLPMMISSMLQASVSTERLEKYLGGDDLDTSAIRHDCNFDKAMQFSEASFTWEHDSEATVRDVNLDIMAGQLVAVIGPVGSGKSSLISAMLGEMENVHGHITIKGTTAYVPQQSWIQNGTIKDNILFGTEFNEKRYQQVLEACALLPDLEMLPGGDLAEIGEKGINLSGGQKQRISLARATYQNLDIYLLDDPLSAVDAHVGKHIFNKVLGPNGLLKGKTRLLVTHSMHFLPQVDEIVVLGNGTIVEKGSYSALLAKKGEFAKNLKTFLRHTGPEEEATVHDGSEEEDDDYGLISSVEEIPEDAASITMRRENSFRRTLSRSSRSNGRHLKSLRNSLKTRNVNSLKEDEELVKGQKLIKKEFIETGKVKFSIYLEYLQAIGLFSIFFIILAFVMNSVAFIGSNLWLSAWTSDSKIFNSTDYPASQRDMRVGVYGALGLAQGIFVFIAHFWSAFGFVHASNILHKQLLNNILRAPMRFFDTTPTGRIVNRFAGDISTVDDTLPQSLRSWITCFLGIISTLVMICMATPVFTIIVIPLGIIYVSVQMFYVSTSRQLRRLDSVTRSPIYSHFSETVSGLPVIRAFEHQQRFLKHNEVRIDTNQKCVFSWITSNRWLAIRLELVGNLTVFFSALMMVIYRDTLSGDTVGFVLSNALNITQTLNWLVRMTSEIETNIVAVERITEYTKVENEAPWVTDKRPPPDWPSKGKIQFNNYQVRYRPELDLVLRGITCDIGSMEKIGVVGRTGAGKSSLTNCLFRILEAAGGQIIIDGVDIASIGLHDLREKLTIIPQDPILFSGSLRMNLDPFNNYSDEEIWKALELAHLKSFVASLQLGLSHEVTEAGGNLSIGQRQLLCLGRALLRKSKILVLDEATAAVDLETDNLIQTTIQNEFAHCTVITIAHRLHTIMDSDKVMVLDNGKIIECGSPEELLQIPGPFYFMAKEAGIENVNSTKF

C[n+]1ccccc1
transporter substrate: [1] | [2] | [3] | [4]

CN(C)C(=N)N=C(N)N [METFORMIN]
transporter substrate: [1] | [2] | [3] | [4]

O=C1c2c(O)ccc(O)c2C(=O)c2c(NCCNCCO)ccc(NCCNCCO)c21 [MITOXANTRONE]
transporter substrate: [5] | [6]

CC[N+](CC)(CC)CC [TETRYLAMMONIUM]
transporter substrate: [1] | [2] | [3] | [4]

CC[C@@]1(O)C(=O)OCc2c1cc1n(c2=O)Cc2cc3c(CN(C)C)c(O)ccc3nc2-1 [TOPOTECAN]
transporter substrate: [5] | [7]

Source: ChEMBL document CHEMBL1743141, “Membrane transporters in drug development” (Nat Rev Drug Discov, 2010)
